According to patent publication US6835720B2, “Compounds having antiviral activity” (Nissin Food Products Co., Ltd., priority 1996, dated 2004):
Like-named read-outs stand apart in the source and are kept apart here.

Legend:
AIDS virus (HIV-1, IIIb) = format: cell-based; details: HIV-1 IIIb in H9 cells, p24 in culture supernatant by ELISA on the 6th day
Procedure: (§1) Samples of various concentrations (25 μl) are distributed into a 24-well microplate, immediately added with human T cells (H9 cell line, 1.2×10^5/ml) (1 ml), covered, and incubated at 37° C. for 1 h. Then, AIDS virus (HIV-1, IIIb, 100 TCID 50) (25 μl) is added to each well and thoroughly mixed, covered again, and incubated under the CO2 atmosphere at 37° C. for 3 days. On the fourth day, aliquots (200 μl) of the culture medium from each well are transferred into a fresh microplate. The growth medium (500 μl) is added to each well, and further incubated for 2 days.
(§2) On the 6th day, aliquots (90 μl) of the culture supernatant are withdrawn, and assayed the amount of p24, a constituent of HIV-1, by ELISA method using the anti-p24 antibody to assess the growth of said virus. Also, using the remaining cell culture suspension (100 μl), viable cells are counted by the MTT method. Experimental values are expressed as the ratios (%) to the negative control value (measured using the solvent to dissolve test compounds as the sample) to represent the anti-HIV activity and cytotoxicity. Then, for the unified representation of the anti-HIV activity and cytotoxicity, the concentrations of test compounds at their 50% values are obtained from the activity-concentration curves and the cytotoxicity-concentration, and represented as IC50 and CC50, respectively.

[1] = test system: human T cells (H9 cell line); assay: Cytotoxicity, viable cells counted by the MTT method; format: cell-based
Procedure: as §1, §2

human plasma = assay: Anti-coagulation activity in human plasma; details: calcium chloride, 37° C. for 30 min, judged with the naked eye

| Compound | IC50 (AIDS virus (HIV-1, IIIb)) | CC50 [1] | CC50 ([1]; H9 cells, MTT method, 6th day, read-out: CC 50) | Minimum concentration exhibiting anticoagulant action (human plasma) |
| --- | --- | --- | --- | --- |
| 1-[N-{5-Acetamido-3,5-dideoxy-2-O-methyl-4,7,8,9-tetra-O-(sodium oxysulfonyl)-D-glycero-β-D-galacto-2-nonulopyranosonyl}amino]-2,2-bis(docosyloxymethyl) propane [Example 59] | 1.4 µM | > 200 µM | – | – |
| 3-O-[Sodium{5-acetamido-3,5-dideoxy-4,7,8,9-tetra-O-(sodium oxysulfonyl)-D-glycero-α-D-galacto-2-nonulopyranosyl}onate]-1,2-di-O-tetradecyl-Sn-glycerol [Example 7] | 16 µM | > 200 µM | – | – |
| 3-S-[Sodium{5-acetamido-3,5-dideoxy-4,7,8,9-tetra-O-(sodium oxysulfonyl)-D-glycero-α-D-galacto-2-nonulopyranosyl}onate]-1,2-di-O-tetradecyl-Sn-thioglycerol [Example 14] | 15 µM | > 200 µM | – | – |
| CCCCCCCCCCOCC(COC1(C(=O)O)CC(OS(=O)(=O)O)C(NC(C)=O)C(C(OS(=O)(=O)O)C(COS(=O)(=O)O)OS(=O)(=O)O)O1)OCCCCCCCCCC [Example 5, 3-O-[Sodium{5-acetamido-3,5-dideoxy-4,7,8,9-tetra-O-(sodiumoxysulfonyl)-D-glycero-α-D-galacto-2-nonulopyranosyl}onate]-1,2-di-O-decyl-Sn-glycerol] | 46 µM | > 200 µM | – | – |
| CCCCCCCCCCOCC(COC1(C(=O)O)CC(OS(=O)(=O)O)C(NC(C)=O)C(C(OS(=O)(=O)O)C(COS(=O)(=O)O)OS(=O)(=O)O)O1)OCCCCCCCCCC [Example 6, 3-O-[Sodium{5-acetamido-3,5-dideoxy4,7,8,9-tetra-O-(sodiumoxysulfonyl)-D-glycero-β-D-galacto-2-nonulopyranosyl}onate]-1,2-di-O-decyl-Sn-glycerol] | 50 µM | – | > 200 µM | – |
| CCCCCCCCCCCCCCOCC(COC1(C(=O)O)CC(OS(=O)(=O)O)C(NC(C)=O)C(C(OS(=O)(=O)O)C(COS(=O)(=O)O)OS(=O)(=O)O)O1)OCCCCCCCCCCCCCC [Example 8, 3-O-[Sodium{5-acetamido-3,5-dideoxy-4,7,8,9-tetra-O-(sodiumoxysulfonyl)-D-glycerol-β-D-galacto-2-nonulopyranosyl}ornate]-1,2-di-O-tetradecyl-Sn-glycerol] | 15 µM | > 200 µM | – | – |
| CCCCCCCCCCCCCCCCCCOCC(COC1(C(=O)O)CC(OS(=O)(=O)O)C(NC(C)=O)C(C(OS(=O)(=O)O)C(COS(=O)(=O)O)OS(=O)(=O)O)O1)OCCCCCCCCCCCCCCCCCC [Example 9, 3-O-[Sodium{5-acetamido-3,5-dideoxy-4,7,8,9-tetra-O-(sodiumoxysulfonyl)-D-glycerol-α-D-galacto-2-nonulopyranosyl)onate]-1,2-di-O-octadecyl-Sn-glycerol] | 3.8 µM | > 200 µM | – | – |
| CCCCCCCCCCCCCCCCCCOCC(COC1(C(=O)O)CC(OS(=O)(=O)O)C(NC(C)=O)C(C(OS(=O)(=O)O)C(COS(=O)(=O)O)OS(=O)(=O)O)O1)OS(=O)(=O)O [Example 10, 3-O-[Sodium{5-acetamido-3,5-dideoxy-4,7,8,9-tetra-O-(sodiumoxysulfonyl)-D-glycero-α-D-galacto-2-nonulopyranosyl}onate]-2-O-(sodiumoxysulfonyl)-1-O-octadecyl-Sn-glycerol] | 30 µM | > 200 µM | – | – |
| CCCCCCCCCCCCCCCCCCOC[C@H](CO[C@@]1(C(=O)O)C[C@H](OS(=O)(=O)O)[C@@H](NC(C)=O)[C@H]([C@H](OS(=O)(=O)O)[C@@H](COS(=O)(=O)O)OS(=O)(=O)O)O1)OS(=O)(=O)O [Example 11, 3-O-[Sodium{5-acetamido-3,5-dideoxy4,7,8,9-tetra-O-(sodiumoxysulfonyl)-D-glycero-β-D-galacto-2-nonulopyranosyl}onate]-2-O-(sodiumoxysulfonyl)-1-O-octadecyl-Sn-glycerol] | 13 µM | 200 µM | – | – |
| CCCCCCCCCCCCCCCCCCCCOCC(COC1(C(=O)O)CC(OS(=O)(=O)O)C(NC(C)=O)C(C(OS(=O)(=O)O)C(COS(=O)(=O)O)OS(=O)(=O)O)O1)OCCCCCCCCCCCCCCCCCCCC [Example 17, 3-O-[Sodium{5-acetamido-3,5-dideoxy-4,7,8,9-tetra-O-(sodiumoxysulfonyl)-D-glycero-α-D-galacto-2-nonulopyranosyl)onate]-1,2-di-O-eicosyl-Sn-glycerol] | 2.5 µM | > 20 µM | – | – |
| CCCCCCCCCCCCCCCCCCCCCCCCOCC(COC1(C(=O)O)CC(OS(=O)(=O)O)C(NC(C)=O)C(C(OS(=O)(=O)O)C(COS(=O)(=O)O)OS(=O)(=O)O)O1)OCCCCCCCCCCCCCCCCCCCCCCCC [Example 20, 3-O-[Sodium{5-acetamido-3,5-dideoxy-4,7,8,9-tetra-O-(sodiumoxysulfonyl)-D-glycero-α-D-galacto-2-nonulopyranosyl}onate]-1,2-di-O-tetracosyl-Sn-glycerol] | 1.2 µM | > 20 µM | – | – |
| CC(=O)N[C@H]1[C@H]([C@H](OS(=O)(=O)O)[C@@H](COS(=O)(=O)O)OS(=O)(=O)O)O[C@@](O[C@H]2CC[C@@]3(C)C(=CC[C@H]4[C@@H]5CC[C@H]([C@H](C)CCCC(C)C)[C@@]5(C)CC[C@@H]43)C2)(C(=O)O)C[C@@H]1OS(=O)(=O)O [Example 24, 3β-[Sodium{5-acetamido-3,5-dideoxy-4,7,8,9-tetra-O-(sodiumoxysulfonyl)-D-glycero-α-D-galacto-2-nonulopyranosyl}onate]-5-cholestene] | 34 µM | > 200 µM | – | – |
| CCCCCCCC/C=C\CCCCCCCCOC1(C(=O)O)CC(OS(=O)(=O)O)C(NC(C)=O)C(C(OS(=O)(=O)O)C(COS(=O)(=O)O)OS(=O)(=O)O)O1 [Example 25, Sodium[oleyl 5-acetamido-3,5-dideoxy-4,7,8,9-tetra-O-(sodiumoxysulfonyl)-D-glycero-α-D-galacto-2-nonulopyranosid]onate] | 100 µM | > 200 µM | – | – |
| CCCCCCCCCCCCCCCCCCO[C@]1(C(=O)O)C[C@H](OS(=O)(=O)O)[C@@H](NC(C)=O)[C@H]([C@H](OS(=O)(=O)O)[C@@H](COS(=O)(=O)O)OS(=O)(=O)O)O1 [Example 26, Sodium[octadecyl 5-acetamido-3,5-dideoxy-4,7,8,9-tetra-O-(sodiumoxysulfonyl)-D-glycero-α-D-galacto-2-nonulopyranosid)onate] | 100 µM | > 200 µM | – | – |
| CCCCCCCCCCCCCCCCCCCCOCC(C)(COCCCCCCCCCCCCCCCCCCCC)CO[C@]1(C(=O)O)C[C@H](OS(=O)(=O)O)[C@@H](NC(C)=O)[C@H]([C@H](OS(=O)(=O)O)[C@@H](COS(=O)(=O)O)OS(=O)(=O)O)O1 [Example 32, Sodium[2,2-bis(eicosyloxymethyl)propyl 5-acetamido-3,5-dideoxy-4,7,8,9-tetra-O-(sodiumoxysulfonyl)-D-glycero-α-D-galacto-2-nonulopyranosid)onate] | 2.5 µM | > 200 µM | – | – |
| CCCCCCCCCCCCCCCCCCCCCCOc1cc(OCCCCCCCCCCCCCCCCCCCCCC)cc(O[C@@]2(C(=O)O)C[C@H](OS(=O)(=O)O)[C@@H](NC(C)=O)[C@H]([C@H](OS(=O)(=O)O)[C@@H](COS(=O)(=O)O)OS(=O)(=O)O)O2)c1 [Example 35, Sodium[3,5-Didocosyloxyphenyl-5-acetamido-3,5-dideoxy-4,7,8,9-tetra-O-(sodiumoxysulfonyl)-D-glycero-β-D-galacto-2-nonulopyranosid)onate] | 90 µM | > 20 µM | – | – |
| CCCCCCCCCCCCCCCCCCCCCC(=O)OCC(COC1(C(=O)O)CC(OS(=O)(=O)O)C(NC(C)=O)C(C(OS(=O)(=O)O)C(COS(=O)(=O)O)OS(=O)(=O)O)O1)OC(=O)CCCCCCCCCCCCCCCCCCCCC [Example 38, 3-O-[Sodium{5-acetamido-3,5-dideoxy-4,7,8,9-tretra-O-(sodiumoxysulfonyl)-D-glycero-α-D-galacto-2-nonulopyranosyl}onate]-1,2-di-O-docosanoyl-Sn-glycerol] | 2.5 µM | > 200 µM | – | – |
| CCCCCCCCCCCCCCCCCCCCCCOCC(COC1(C(=O)O)CC(OS(=O)(=O)O)C(OS(=O)(=O)O)C(C(OS(=O)(=O)O)C(COS(=O)(=O)O)OS(=O)(=O)O)O1)OCCCCCCCCCCCCCCCCCCCCCC [Example 41, 3-O-[Sodium{3-deoxy-4,5,7,8,9-penta-O-(sodiumoxysulfonyl)-D-glycero-α-D-galacto-2-nonulopyranosyl}onate]-1,2-di-O-docosyl-Sn-glycerol] | 4 µM | > 200 µM | – | – |
| CCCCCCCCCCCCCCCCCCCCCCOCC(CC)(COCCCCCCCCCCCCCCCCCCCCCC)COC1(C(=O)O)CC(OS(=O)(=O)O)C(NC(C)=O)C(C(OS(=O)(=O)O)C(COS(=O)(=O)O)OS(=O)(=O)O)O1 [Example 50, Sodium[2,2-bis(docosyloxymethyl)butyl 5-acetamido-3,5-dideoxy-4,7,8,9-tetra-O-(sodiumoxysulfonyl)-D-glycero-α-D-galacto-2-nonulopyranosid)onate] | 1.1 µM | > 200 µM | – | – |
| Dextran sulfate [reference compound] | – | – | – | 0.5 µM |
